Laboratory results as given in PubChem BioAssay (NCI).
Values joined by “and” are separate entries in the source; they are usually repeats but may differ in a detail not shown here. Identical values can stand only once.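 Interpolation was linear, between the two tested concentrations surrounding the appropriate level; five concentrations were tested over 48 hours in 96-well plates. The concentration for 50% growth inhibition is given as GI50. TGI: total growth inhibition.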

Experiments:
Assay in all cases: NCI-60 cell line screen, 48 h
786-0 renal = tested on: 786-0 renal
HS 578T breast = tested on: HS 578T breast
NCI-H23 lung = tested on: NCI-H23 lung
NCI-H460 lung = tested on: NCI-H460 lung
OVCAR-3 ovarian = tested on: OVCAR-3 ovarian
RPMI-8226 leukemia = tested on: RPMI-8226 leukemia
SF-295 CNS = tested on: SF-295 CNS
SNB-19 CNS = tested on: SNB-19 CNS
SR leukemia = tested on: SR leukemia
T-47D breast = tested on: T-47D breast

Row | Compound | GI50 (786-0 renal) [µM] | TGI (786-0 renal) | GI50 (HS 578T breast) [µM] | TGI (HS 578T breast) [µM] | GI50 (NCI-H23 lung) [µM] | TGI (NCI-H23 lung) | GI50 (NCI-H460 lung) [µM] | TGI (NCI-H460 lung) [µM] | GI50 (OVCAR-3 ovarian) [µM] | TGI (OVCAR-3 ovarian) | GI50 (RPMI-8226 leukemia) [µM] | TGI (RPMI-8226 leukemia) | GI50 (SF-295 CNS) [µM] | TGI (SF-295 CNS) | GI50 (SNB-19 CNS) [µM] | TGI (SNB-19 CNS) [µM] | GI50 (SR leukemia) [µM] | TGI (SR leukemia) [µM] | GI50 (T-47D breast) [µM] | TGI (T-47D breast) [µM]
1 | CCCCCCCCCCCCCCCCC(=O)O.CCCCCCCCCCCCCCCCCC(=O)O.CCCCCCCCCCCCCCCCCC(=O)O.CCCCCCCCCCCCCCCCCC(=O)O.CCCCCCCCCCCCCCCCCC(=O)O.CO[CH-]OC12COC1CC(O)C1(C)C(O)C(OC(C)O)C3=C(C)C(OC(=O)C(O)C([NH-])c4ccccc4)CC(O)(C(OC(=O)c4ccccc4)C21)C3(C)C.[Cu+].[Zn].[Zn].[Zn].[Zn].[Zn] (centres undefined) | 0.0595 | > 10.9 µM | 0.00335 | 0.0297 | 0.0115 | > 14.5 µM | 0.00441 | 3.66 | 0.00747 | 0.388 µM | 0.00776 | > 25 µM | 0.0102 | 2.9 µM | 0.0105 | > 11.5 | 0.00414 | 11.5 | 0.00863 | > 25
2 | CC(=O)N1N=C2/C(=C/c3ccc(Cl)cc3)CC(C)CC2C1c1ccc(Cl)cc1 (centres undefined) | 18.2 | 39.1 µM | 20.6 | 72.1 | 25.2 | > 100 µM | 18.5 | 41.8 | 20 | 53.9 µM | 9.14 | 32.6 µM | 28.8 | > 100 µM | 23.7 | > 100 | 14.6 | 53.8 | 12.4 | 61.8
3 | CN1C/C=C/CCOc2cccc(c2)-c2ccnc(n2)Nc2cccc(c2)C1 | 0.0317 | 0.203 µM | 0.0367 | 0.438 | 0.0577 | 0.289 µM | 0.0347 | 0.352 | 0.0336 | 1.23 µM | 0.058 | 0.879 µM | 0.0321 | 0.434 µM | 0.0574 | 4.4 | 0.0201 |  | 0.0437 | 0.447
4 | O=C1c2ccccc2-c2c1c1ccccc1c(=O)n2CCCNCCCCNCCCN1C(=O)c2ccccc2C2C(=O)c3ccccc3C21 (centres undefined) | 0.0786 | 0.782 µM | 0.739 | 2.08 | 0.319 | 0.999 µM | 0.0426 | 2.39 | 0.212 | 0.87 µM | 0.00858 | 0.237 µM | 0.0647 | 0.872 µM | 0.57 | 1.93 | < 0.005 | 0.00559 | 0.643 | 1.77
5 | COc1cc(-c2cc(-c3cc(OC)c(OC)c(OC)c3)nc3nc(N)[nH]c(=O)c23)ccc1Oc1ccnc2cc(Cl)ccc12 | 3.86 | > 100 µM | 3.1 | > 100 | 3.43 | 24.9 µM | 3.45 | 37.7 | 0.736 | 13.6 µM | 2.52 | 10.2 µM | 4.52 | 85.5 µM | 6.62 | > 100 | 0.468 | 29.6 | 5.22 | 58
6 | Cc1cc(C(C)(C)C)cc(CNC2CCCCC2)c1O |  | 30 µM |  | 48.7 |  | 29.2 µM |  | 28.4 |  | 34.2 µM |  | 45.5 µM |  | 31.7 µM |  | 31.9 |  | 53.6 |  | 32.8
7 | Cc1c(O)c2c(c(O)c1Br)C(=O)C=CC2=O | 1.46 | 0.428 µM and 3.02 µM |  | 6.34 | 1.48 | 2.09 µM and 3.28 µM |  | 2.74 | 0.241 | 1.9 µM and 0.788 µM | 0.138 | 1.01 µM and 0.436 µM | 14 | 3.15 µM and 28.2 µM |  | 3.74 |  | 0.73 |  | 2.01
8 | NC(N)=N/N=C/c1ccc(-c2ccc(-c3cc(Cl)cc(Cl)c3)s2)cc1 | 1.74 | 3.66 µM | 1.78 | 4.05 | 1.9 | 3.88 µM | 1.7 | 3.46 | 1.71 | 3.27 µM | 1.78 | 4.49 µM | 1.84 | 3.47 µM | 1.85 | 3.73 | 0.326 | 1.73 | 2.02 | 4.54
